Measurements from patent US20250145608A1, “KRAS DEGRADING COMPOUNDS COMPRISING ANNULATED 2-AMINO-3-CYANO THIOPHENES” (Boehringer Ingelheim Int'l GmbH Corp., priority 2021, published 2025).

What was measured:
Type in all cases: cell-based
[1] = tested on: SAS cells; test: SAS CTG proliferation assay (120 h) (HNSCC, wt amplified)
Protocol: SAS CTG Proliferation Assay (120 h) (HNSCC, Wt Amplified)
(§1) SAS cells (JCRB0260) are dispensed into 384-well plates, flat and clear bottom (Greiner, PNr. 781091) at a density of 300 cells per well in 60 μL DMEM:F12 (Gibco 31330-038)+10% Fetal Calf Serum (HyClone, PNr.: SH30084.03) and incubated at 37° C. in a CO2 incubator overnight. The next day, compounds (10 mM stock in DMSO) are added with the ECHO acoustic liquid handler system (Beckman Coulter), including DMSO controls. Plates are incubated for 120 h, and cell viability is measured using CellTiter-Glo luminescent cell viability reagent (Promega product code G7570). Viability (stated as percent of control) is defined as relative luminescence units RLU of each well divided by the RLU of cells in DMSO controls. IC50 values are determined from viability measurements by non-linear regression using a four-parameter model.

[2] = target: T1, KRAS(G12D) (Homo sapiens, UniProt P01116, G12D); test: HiBit degradation assay in GP5d-HiBit-KRAS(G12D) cells (18 h; DC50, Dmax)
T1 construct: introduced immediately downstream of the initiating Methionine codon of the endogenous KRAS locus; host or cells: GP5d-HiBit-KRAS(G12D), a CRISPR knock-in at the endogenous locus
Protocol: A HiBit protein detection tag (amino acid sequence […], Seq ID No 1) was introduced immediately downstream of the initiating Methionine codon of the endogenous KRAS locus (Ensembl gene ID ENSG00000133703.7) of GP5d cells (ECACC Cat. No. 95090715) by CRISPR-based genome engineering using a KRAS(G12D) mutant donor construct encoding the HiBit tag. […] Correct modification of the KRAS locus was assessed by PCR-based genotyping and Sanger sequencing of the isolated PCR products. The resulting cell line is referred to as GP5d-HiBit-KRAS(G12D).
To assess PROTAC-mediated degradation of KRAS(G12D), GP5d-HiBit-KRAS(G12D) cells were seeded at 25000 cells per well in 100 μL Dulbecco's Modified Eagle medium (Sigma cat. no. D6429) supplemented with 10% fetal calf serum into white bottom opaque 96 well plates (Perkin Elmer cat no. 5680). Plates were incubated at 37° C., 5% CO2 in a humidified incubator over night to allow the cells to adhere. […] Plates were further incubated at 37° C. for 18 hours. Following incubation, 100 μL per well Promega Nano-Glo HiBit lytic detection reagent mix (Promega Nano-Glo HiBit Lytic Detection System #N3050), prepared according to the manufacturer's instructions in the kit, were added. To allow for adequate cell lysis, plates were incubated on an orbital shaker for 15 min and further incubated 30 min at room temperature. Upon completion of cell lysis, luminescence was measured using an Envision plate reader using the Ultrasensitive Luminescence Protocol for 96 well plates. Luminescence levels were normalized by the values obtained with DMSO-treated samples and plotted as percent of DMSO control. DC50 values were computed using a four parametric logistic model. Dmax values represent the maximal extent of degradation observed and is stated as percent of control (% Ctrl.) treatments. DC50 and Dmax are reported in Table 64 for representative compounds of the invention.

[3] = tested on: AsPC-1 cells; test: AsPC-1 CTG proliferation assay (120 h) (pancreatic cancer, G12D); conditions: Homo sapiens, ASPC1, AsPC-1 proliferation
Protocol: AsPC-1 CTG Proliferation Assay (120 h) (Pancreatic Cancer, G12D)
The CTG assay is designed to measure quantitatively the proliferation of AsPC-1 cells (ATCC […]), using the CellTiter Glow Assay Kit (Promega G7571). Cells are grown in RPMI medium (ATCC) supplemented with Fetal Calf Serum (Life Technologies, Gibco BRL, Cat. No. 10270-106). On “day 0” 2000 AsPC-1 cells are seeded in 60 μL RPMI ATCC+10% FCS+ Penstrep in a 384-well plate, flat and clear bottom (Greiner, PNr. 781091). Cells are then incubated in the plates at 37° C. in a CO2 incubator overnight. On day 1, compounds (10 mM stock in DMSO) are added with the ECHO acoustic liquid handler system (Beckman Coulter), including DMSO controls. Plates are incubated for 120 h, and cell viability is measured using CellTiter-Glo luminescent cell viability reagent (Promega product code G7570). Viability (stated as percent of control) is defined as relative luminescence units RLU of each well divided by the RLU of cells in DMSO controls. IC50 values are determined from viability measurements by non-linear regression using a four-parameter model.

[4] = tested on: SK—CO-1 cells; test: SK-CO-1 CTG proliferation assay (120 h) (CRC, G12V); conditions: Homo sapiens, SK-CO-1 proliferation
Protocol: SK—CO-1 CTG Proliferation Assay (120 h) (CRC, G12V)
as §1, with “SK—CO-1 cells (ATCC” for “SAS cells (JCRB0260)”, “SK—CO-1 cells (ATCC HTB-39) are dispensed” for “SAS cells (JCRB0260) are dispensed”, “density of 500 cells per” for “density of 300 cells per”, “60 μL EMEM (Sigma M5650)+10% Fetal Calf” for “60 μL DMEM:F12 (Gibco 31330-038)+10% Fetal Calf”

[5] = tested on: LOVO cells; test: LOVO CTG proliferation assay (120 h) (CRC, G13D); conditions: Homo sapiens
Protocol: LOVO CTG Proliferation Assay (120 h) (CRC, G13D)
as §1, with “LOVO cells (ATCC” for “SAS cells (JCRB0260)”, “LOVO cells (ATCC CCL-229) are dispensed” for “SAS cells (JCRB0260) are dispensed”, “density of 1000 cells per” for “density of 300 cells per”, “60 μL DMEM (Sigma D6429)+10% Fetal Calf” for “60 μL DMEM:F12 (Gibco 31330-038)+10% Fetal Calf”

[6] = tested on: NCI-H358 cells; test: NCI-H358 CTG proliferation assay (120 h) (NSCLC, G12C); conditions: Homo sapiens, assay 2, read-out: H358 (assay 2) IC50
Protocol: NCI-H358 CTG Proliferation Assay (120 h) (NSCLC, G12C)
NCI-H358 cells (ATCC No. CRL-5807) are dispensed into white bottom opaque 96 well plates (Perkin Elmer cat no. 5680) at a density of 2000 cells per well in 100 μL RPMI-1640 ATCC-Formulation (Gibco #A10491)+10% FCS (fetal calf serum) (assay 1) or into black 384-well plates, flat and clear bottom (Greiner, PNr. 781091) at a density of 200 cells per well in 60 μl RPMI-1640 ATCC-Formulation (Gibco #A10491)+10% FCS (fetal calf serum) (assay 2). […] Compounds (10 mM stock in DMSO) are added at logarithmic dose series using the HP Digital Dispenser D300 (Tecan) (assay 1) or the ECHO acoustic liquid handler system (Beckman Coulter) (assay 2), normalizing for added DMSO and including DMSO controls. For the TO time point measurement, untreated cells are analyzed at the time of compound addition. Plates are incubated for 120 h, and cell viability is measured using CellTiter-Glo luminescent cell viability reagent (Promega product code G7570). Viability (stated as percent of control) is defined as relative luminescence units RLU of each well divided by the RLU of cells in DMSO controls. IC50 values are determined from viability measurements by non-linear regression using a four parameter model.

T1 sequence (P01116 1-188 isoform P01116-2 G12D): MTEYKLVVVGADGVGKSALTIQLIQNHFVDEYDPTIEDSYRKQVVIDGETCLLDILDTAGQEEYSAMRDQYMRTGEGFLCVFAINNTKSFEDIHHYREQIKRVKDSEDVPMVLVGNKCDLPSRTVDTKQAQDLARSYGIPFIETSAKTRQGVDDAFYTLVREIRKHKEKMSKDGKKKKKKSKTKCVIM

SMILES | IC50 [1] | DC50 [2] | Dmax 18 h [2] | IC50 [3] | IC50 [4] | IC50 [5] | IC50 [6]
COC(=O)[C@H](NC(=O)[C@@H]1C[C@@H](O)CN1C(=O)C(C(C)C)n1cc(OCCCCN2CCCN(c3nccc(-c4noc([C@@]5(C)CCCc6sc(N)c(C#N)c65)n4)n3)[C@@H](C)C2)nn1)c1ccc(-c2scnc2C)cc1 (some centres unmarked) [I-33] | 84.5 nM | 13.1 nM | 91 % Ctrl | 323 nM | 1950 nM | 50 nM | –
Cc1ncsc1-c1ccc([C@H](CO)NC(=O)[C@@H]2C[C@@H](O)CN2C(=O)C(C(C)C)n2cc(OCCCCN3C[C@H](C)N(c4nccc(-c5noc([C@@]6(C)CCCc7sc(N)c(C#N)c76)n5)n4)CCC3(C)C)nn2)cc1 (some centres unmarked) [I-32] | 9440 nM | 7.6 nM | 83 % Ctrl | 8330 nM | 507 nM | 929 nM | –
CC(C)C(C(=O)N1C[C@H](O)C[C@H]1C(=O)NCc1ccc(-c2scnc2CO)cc1)c1cc(OCCCCN2CCCN(c3nccc(-c4noc([C@@]5(C)CCCc6sc(N)c(C#N)c65)n4)n3)[C@@H](C)C2)no1 (some centres unmarked) [I-9] | 16400 nM | 12.9 nM | 92 % Ctrl | 470 nM | 216 nM | 59.4 nM | 288 nM
CC(C)C(C(=O)N1C[C@H](O)C[C@H]1C(=O)NCc1ccc(C#N)c(Cl)c1)c1cc(OCCCCN2CCCN(c3nccc(-c4noc([C@@]5(C)CCCc6sc(N)c(C#N)c65)n4)n3)[C@@H](C)C2)no1 (some centres unmarked) [I-18] | 3380 nM | 4.1 nM | 89 % Ctrl | 435 nM | 124 nM | 278 nM | 169 nM
